Test results published in US9757455B2, “Oral therapeutic compound delivery system” (Johnson & Johnson Consumer Inc., priority 2005, dated 2017).
Converted amounts (≈) assume the structure as drawn. Where a name gives a salt, the structure may show the parent alone. Read-outs that look alike come from different tables or passages of the source.

What was measured:
[1] = Dissolution, USP dissolution apparatus 2, 900 mL 0.0033 N hydrochloric acid, 30 rpm, 37° C.; format: physicochemical; conditions: basic and amphoteric drugs in formulations according to the invention (Table 32)
Description: (§1) Testing was conducted in a dissolution medium containing 900 mL 0.0033 N hydrochloric acid (HCl) at 37° C. which discriminates better between fast dissolving formulations than more acidic dissolution media where the effect of high acid concentration tends to mask formulation effects on dissolution. 900 mL of this medium contains the absolute amount of acid estimated to be present in the gastric contents in vivo, namely 3 millimoles.
(§2) Testing at was conducted at a stirring speed of 30 rpm and also at 0 rpm which provides more discrimination between formulations. To achieve maximum dissolution, the stirring speed was increased to 250 rpm for 10 minutes after 20 minutes for measurements at 30 rpm, and after 60 minutes for measurements at 0 rpm.
(§3) Unless otherwise stated, drug concentrations were measured using a Varian Cary 50 UV-Vis Spectrophotometer set at an appropriate wavelength using flow through cells for automatic continuous sampling. For each drug, the optimal wavelength was selected after running UV scans in the dissolution medium.
A suitable C18 column and guard column were used. Results were processed using Waters Empower software.

[2] = Solubility in water; conditions: for solubility: water; for Volume of water (mL) to dissolve dose: dose per tablet as in label
[3] = Dissolution, USP dissolution apparatus 2, 900 mL 0.0033 N hydrochloric acid, 0 rpm, 37° C.; format: physicochemical; conditions: for % dissolved in 900 mL 0.0033 N HCl: basic and amphoteric drugs in formulations according to the invention (Table 32), 0 rpm
Description: as §1
Dissolution results without stirring may be of in vivo significance in conditions where there is gut stasis or reduced gastric activity.
as §2, §3

[4] = 30 minutes, 30 rpm (increased to 250 rpm after 20 minutes)
[5] = dose (mg) of each drug as in Table 78
[6] = pH modulating agent: Bicarb + acid, 300 sec (Table 33)
[7] = pH modulating agent: Bicarb + acid, 15 min (Table 33)
[8] = pH modulating agent: Bicarb + acid, 30 min (Table 33)
[9] = pH modulating agent: Bicarbonate, 300 sec (Table 33)
[10] = pH modulating agent: Bicarbonate, 15 min (Table 33)
[11] = pH modulating agent: Bicarbonate, 30 min (Table 33)

Row | SMILES | % dissolved in 900 mL 0.0033 N HCl ([1]; 180 sec, 30 rpm) [%] | % dissolved in 900 mL 0.0033 N HCl ([1]; 300 sec, 30 rpm) [%] | % dissolved in 900 mL 0.0033 N HCl ([1]; 15 minutes, 30 rpm) [%] | % dissolved in 900 mL 0.0033 N HCl [1, 4] [%] | Volume (mL) of water to dissolve dose [2, 5] [mL] | % dissolved in 900 mL 0.0033 N HCl ([3]; 180 sec) [%] | % dissolved in 900 mL 0.0033 N HCl ([3]; 300 sec) [%] | % dissolved in 900 mL 0.0033 N HCl ([3]; 15 minutes) [%] | % dissolved in 900 mL 0.0033 N HCl ([3]; 30 minutes) [%] | % drug dissolved in 900 mL 0.0033 N HCl at 0 rpm [3, 6] [%] | % drug dissolved in 900 mL 0.0033 N HCl at 0 rpm [3, 7] [%] | % drug dissolved in 900 mL 0.0033 N HCl at 0 rpm [3, 8] [%] | % drug dissolved in 900 mL 0.0033 N HCl at 0 rpm [3, 9] [%] | % drug dissolved in 900 mL 0.0033 N HCl at 0 rpm [3, 10] [%] | % drug dissolved in 900 mL 0.0033 N HCl at 0 rpm [3, 11] [%] | Effect of ↑ pH on solubility [2] | solubility [2] [µg/mL] | Volume of water (mL) to dissolve dose [2] | Volume (mL) of water to dissolve dose [2] [mL]
1 | Cc1nnc2n1-c1ccc(Cl)cc1C(c1ccccc1)=NC2 [Alprazolam] | 61 | 67 | 77 | 100 | 14 | 13 | 20 | 45 | 63 | 20 | 45 | 63 | 1 | 4 | 4 |  |  |  | 
2 | Cc1ccc(-c2cc(C(F)(F)F)nn2-c2ccc(S(N)(=O)=O)cc2)cc1 [Celecoxib] |  |  |  |  |  |  |  |  |  |  |  |  |  |  |  | ⇄ | 3.46 (≈ 9.07 µM) |  | 
3 | C[C@@H]1C[C@H]2[C@@H]3CCC4=CC(=O)C=C[C@]4(C)[C@@]3(F)[C@@H](O)C[C@]2(C)[C@@]1(O)C(=O)CO [Dexamethasone] |  |  |  |  |  |  |  |  |  |  |  |  |  |  |  | ⇄ |  |  | 
4 | O=C(O)Cc1ccccc1Nc1c(Cl)cccc1Cl [Diclofenac potassium] |  |  |  |  |  |  |  |  |  |  |  |  |  |  |  | ↑ | 10000 | 7 mL | 
5 | CN1CCC[C@@H]1Cc1c[nH]c2ccc(CCS(=O)(=O)c3ccccc3)cc12 [Eletriptan hydrochloride, Eletriptan hydrobromide] | 94 | 96 | 97 | 99 | 4 | 88 | 95 | 98 | 100 |  |  |  |  |  |  |  |  |  | 
6 | Cc1ccc(C)c(OCCCC(C)(C)C(=O)O)c1 [Gemfibrozil] |  |  |  |  |  |  |  |  |  |  |  |  |  |  |  | ↑ | 29 (≈ 116 µM) | 20,690 mL | 
7 | CC(C)Cc1ccc(C(C)C(=O)O)cc1 (stereo not shown) [Ibuprofen] |  |  |  |  |  |  |  |  |  |  |  |  |  |  |  | ↑ | 40 (≈ 194 µM) |  | 
8 | CN(C)C(=O)C(CCN1CCC(O)(c2ccc(Cl)cc2)CC1)(c1ccccc1)c1ccccc1 [Loperamide hydrochloride] | 82 | 84 | 89 | 100 |  | 70 | 72 | 87 | 95 | 72 | 87 | 95 | 27 | 43 | 101 |  |  |  | 2
9 | O=C1Nc2ccc(Cl)cc2C(c2ccccc2Cl)=NC1O (stereo not shown) [Lorazepam] | 77 | 88 | 96 | 100 |  | 77 | 85 | 95 | 99 | 85 | 95 | 99 | 6 | 6 | 11 |  |  |  | 
